# Source: patent US8946266B2, “Substituted triazole and imidazole derivatives as gamma secretase modulators” (Janssen Pharmaceuticals, Inc., priority 2009, dated 2015)
# Where two headings read alike, the source gives them in different places.
# Experiments:
# [1] = test system: Aβ42; assay: γ-secretase-modulating activity, Method 2: Aβ42 Alphalisa in supernatant of SKNBE2 cells carrying APP 695-wild type (Table 3b); assay type: cell-based; details: overnight
# Method: (§1) Screening was carried out using SKNBE2 cells carrying the APP 695-wild type, grown in Dulbecco's Modified Eagle's Medium/Nutrient mixture F-12 (DMEM/NUT-mix F-12) (HAM) provided by Invitrogen (cat no. 10371-029) containing 5% Serum/Fe supplemented with 1% non-essential amino acids, 1-glutamine 2 mM, Hepes 15 mM, penicillin 50 U/ml (units/ml) en streptomycin 50 μg/ml. Cells were grown to near confluency.
# (§2) The screening was performed using a modification of the assay as described in Citron et al (1997) Nature Medicine 3: 67. Briefly, cells were plated in a 384-well plate at 10^4 cells/well in Ultraculture (Lonza, BE12-725F) supplemented with 1% glutamine (Invitrogen, 25030-024), 1% non-essential amino acid (NEAA), penicillin 50 U/ml en streptomycin 50 μg/ml in the presence of test compound at different test concentrations. The cell/compound mixture was incubated overnight at 37° C., 5% CO2. The next day the media were assayed by two sandwich immuno-assays, for Aβ42 and Aβtotal.
# (§3) Aβtotal and Aβ42 concentrations were quantified in the cell supernatant using the Aphalisa technology (Perkin Elmer). Alphalisa is a sandwich assay using biotinylated antibody attached to streptavidin coated donorbeads and antibody conjugated to acceptor beads. In the presence of antigen, the beads come into close proximity. The excitation of the donor beads provokes the release of singlet oxygen molecules that trigger a cascade of energy transfer in the acceptor beads, resulting in light emission. To quantify the amount of Aβ42 in the cell supernatant, monoclonal antibody specific to the C-terminus of Aβ42 (JRF/cAβ42/26) was coupled to the receptor beads and biotinylated antibody specific to the N-terminus of Aβ (JRF/AβN/25) was used to react with the donor beads. To quantify the amount of Aβ total in the cell supernatant, monoclonal antibody specific to the N-terminus of Aβ (JRF/AβN/25) was coupled to the receptor beads and biotinylated antibody specific to the mid region of Aβ (biotinylated 4G8) was used to react with the donor beads.
# To obtain the values reported in Table 3b, the data were calculated as percentage of the maximum amount of amyloid Beta 42 measured in the absence of the test compound.
# (§4) The sigmoidal dose response curves were analyzed using non-linear regression analysis with percentage of the control plotted against the log concentration of the compound. A 4-parameter equation was used to determine the IC50.
# (§5) The IC50 values are shown in Table 3b (Aβtot means Aβtotal).
# [2] = test system: Aβtotal; assay: γ-secretase-modulating activity, Method 2: Aβtotal Alphalisa in supernatant of SKNBE2 cells carrying APP 695-wild type (Table 3b); assay type: cell-based; details: overnight, read-out: IC50 Aβtot
# Method: as §1, §2, §3, §4, §5
IC50 [1],IC50 [2],IC50 ([1]; Homo sapiens),IC50 ([2]; Homo sapiens),Compound
> 10000 nM,> 10000 nM,,,COc1cc(-c2nc(N3C[C@@H](C)O[C@@H](C)C3)nn2C)ccc1-n1cnc(C)c1 [Compound 64]
324 nM,> 10000 nM,,,COc1cc(-c2nc(N[C@@H](C)c3ccc(F)cc3)n(C)n2)ccc1-n1cnc(C)c1 [Compound 51]
1350 nM,> 10000 nM,,,COc1cc(-c2ncn(-c3ccccc3C(F)(F)F)n2)ccc1-n1cnc(C)c1 [Compound 63]
115 nM,8320 nM,,,COc1cc(-c2nc(Nc3cccc(F)c3)n(C)n2)ccc1-n1cnc(C)c1 [Compound 104]
89 nM,> 10000 nM,,,COc1cc(-c2nc(Nc3cccc(Cl)c3F)n(C)n2)ccc1-n1cnc(C)c1 [Compound 118]
,,407 nM,> 10000 nM,COc1cc(-c2nc3n(n2)CCCc2ccccc2-3)ccc1-n1cnc(C)c1 [Compound 17]
74 nM,> 3000 nM,,,COc1cc(-c2nc3n(n2)CCCC3c2ccccc2OC(F)(F)F)ccc1-n1cnc(C)c1 (stereo not drawn) [Compound 266]
117 nM,> 10000 nM,,,COc1cc(-c2nc(-c3cccc(C(F)(F)F)c3)n(C)n2)ccc1-n1cnc(C)c1 [Compound 7]
158 nM,> 10000 nM,,,COc1cc(-c2nc(-c3ccccc3C(F)(F)F)n(C)n2)ccc1-n1cnc(C)c1 [Compound 38]
26 nM,> 10000 nM,,,COc1cc(-c2nc3n(n2)CCC[C@H]3c2ccc(F)cc2C)ccc1-n1cnc(C)c1 [Compound 333]
871 nM,> 10000 nM,,,COc1cc(-c2nc(C(C)(C)O)n(C(C)c3ccc(F)cc3)n2)ccc1-n1cnc(C)c1 (racemic) [Compound 300]
41 nM,> 10000 nM,,,COc1cc(-c2nc(Nc3ccccc3Cl)n(C)n2)ccc1-n1cnc(C)c1 [Compound 101]
35 nM,> 10000 nM,,,COc1cc(-c2nc(Nc3cc(C(F)(F)F)cc(Cl)c3F)n(C)n2)ccc1-n1cnc(C)c1 [Compound 210]
170 nM,> 10000 nM,,,COc1nc(-c2nc3n(n2)CCCC3c2ccc(F)cc2)ccc1-n1cnc(C)c1 (stereo not drawn) [Compound 253]
148 nM,> 10000 nM,,,COc1nc(-c2nc(Nc3ccccc3F)n(C)n2)ccc1-n1cnc(C)c1 [Compound 107]
269 nM,> 10000 nM,,,COc1cc(F)ccc1Nc1nc(-c2ccc(-n3cnc(C)c3)c(OC)c2)nn1C [Compound 215]
123 nM,> 10000 nM,,,COc1cc(-c2nc(Nc3cc(F)c(F)cc3I)n(C)n2)ccc1-n1cnc(C)c1 [Compound 120]
31 nM,2340 nM,,,COc1cc(-c2nc(Nc3cccc(C(F)(F)F)c3)n(C(C)C)n2)ccc1-n1cnc(C)c1 [Compound 133]
56 nM,> 10000 nM,,,COCc1ccc(F)c(Nc2nc(-c3ccc(-n4cnc(C)c4)c(OC)c3)nn2C)c1 [Compound 331]
91 nM,> 10000 nM,,,COc1cc(-c2nc(Nc3cccc(F)c3OC)n(C)n2)ccc1-n1cnc(C)c1 [Compound 219]

IC50 [1],IC50 [2],IC50 ([1]; Homo sapiens),IC50 ([2]; Homo sapiens),Compound
132 nM,> 10000 nM,,,COc1cc(-c2nc(Nc3ccc(F)cc3)n(C)n2)ccc1-n1cnc(C)c1 [Compound 106]
28 nM,> 10000 nM,,,COc1cc(Nc2nc(-c3ccc(-n4cnc(C)c4)c(OC)c3)nn2C)ccc1Cl [Compound 191]
3240 nM,> 10000 nM,,,COc1cc(-c2nc(N[C@@H](C)c3ccc(F)cc3)nn2C)ccc1-n1cnc(C)c1 [Compound 62]
27 nM,4070 nM,,,COc1cc(-c2nc(Nc3ccc(C(F)(F)F)cc3)n(C)n2)ccc1-n1cnc(C)c1 [Compound 151]
,,513 nM,,COc1cc(-c2nc(C3CCc4ccccc4N3C)n(C)n2)ccc1-n1cnc(C)c1 (stereo not drawn) [Compound 366]
40 nM,6030 nM,,,COc1cc(-c2nc(Nc3ccc(F)cc3C(F)(F)F)n(C(C)C)n2)ccc1-n1cnc(C)c1 [Compound 49]
155 nM,> 10000 nM,,,COc1cc(-c2nc3n(n2)CCC[C@@H]3c2cc(C(F)(F)F)ccc2C)ccc1-n1cnc(C)c1 [Compound 339]
240 nM,> 10000 nM,,,COc1c(-n2cnc(C)c2)ccc(-c2nc(Nc3ccccc3C)n(C)n2)c1F [Compound 318]
91 nM,> 10000 nM,,,COc1cc(-c2nc(Nc3cc(F)ccc3F)n(C)n2)ccc1-n1cnc(C)c1 [Compound 110]
295 nM,> 10000 nM,,,COc1cc(-c2nc(Nc3cccc(C#N)c3F)n(C)n2)ccc1-n1cnc(C)c1 [Compound 229]
85 nM,11200 nM,,,COc1cccc(-c2nc(-c3ccc(-n4cnc(C)c4)c(OC)c3)nn2C(C)C)c1 [Compound 37]
68 nM,> 10000 nM,,,COc1nc(-c2nc3n(n2)CCCC3c2ccc(F)cc2C)ccc1-n1cnc(C)c1 (stereo not drawn) [Compound 313]
741 nM,> 10000 nM,,,COc1cc(-c2nc(Nc3cccnc3OC)n(C)n2)ccc1-n1cnc(C)c1 [Compound 241]
234 nM,> 10000 nM,,,COc1cc(-c2nc3n(n2)CCC[C@@H]3c2ccc(F)cc2C)ccc1-n1cnc(C)c1 [Compound 332]
178 nM,> 10000 nM,,,COc1ccccc1Nc1nc(-c2ccc(-n3cnc(C)c3)c(OC)c2)nn1C [Compound 187]
59 nM,> 10000 nM,,,COc1cc(-c2nc(Nc3cc(F)c(F)cc3C(F)(F)F)n(C)n2)ccc1-n1cnc(C)c1 [Compound 142]
646 nM,> 10000 nM,,,COc1cc(-c2nc(Nc3cccc(C#N)c3)n(C)n2)ccc1-n1cnc(C)c1 [Compound 224]
214 nM,> 10000 nM,,,COc1ccc(F)cc1Nc1nc(-c2ccc(-n3cnc(C)c3)c(OC)c2)nn1C [Compound 190]
141 nM,> 10000 nM,,,COc1cc(-c2nc3n(n2)CCCC3c2ccc(C(F)(F)F)cc2)ccc1-n1cnc(C)c1 (stereo not drawn) [Compound 268]
62 nM,> 10000 nM,,,COc1cc(-c2nc(Nc3cc(C(F)(F)F)c(F)cc3F)n(C)n2)ccc1-n1cnc(C)c1 [Compound 172]

IC50 [1],IC50 [2],IC50 ([1]; Homo sapiens),IC50 ([2]; Homo sapiens),Compound
129 nM,> 10000 nM,,,COc1cc(-c2nc(Nc3c(F)ccc(OC)c3F)n(C)n2)ccc1-n1cnc(C)c1 [Compound 196]
7 nM,,,,COc1cc(-c2nc(Nc3cc(C(C)(C)C)ccc3F)n(C)n2)ccc1-n1cnc(C)c1 [Compound 357]
66 nM,,,,COc1nc(-c2nc3n(n2)CCC(C)C3c2ccc(F)cc2)ccc1-n1cnc(C)c1 (stereo not drawn) [Compound 368]
407 nM,,,,COc1cc(-c2nc3n(n2)C(C)CCC3c2ccc(F)cc2C)ccc1-n1cnc(C)c1 (stereo not drawn) [Compound 363]
28 nM,,,,COc1cc(-c2nc(Nc3cc(C)ccc3C(F)(F)F)n(C)n2)ccc1-n1cnc(C)c1 [Compound 351]
83 nM,,,,COc1ccc(F)c(C2CCCn3nc(-c4ccc(-n5cnc(C)c5)c(OC)c4)nc32)c1 (stereo not drawn) [Compound 364]
62 nM,,,,COc1cc(-c2nc(Nc3cc(OC4CCOC4)ccc3F)n(C)n2)ccc1-n1cnc(C)c1 (racemic) [Compound 358]
44 nM,,,,COc1cc(-c2nc(Nc3cc(C)ccc3F)n(C)n2)ccc1-n1cnc(C)c1 [Compound 350]
62 nM,,,,COc1nc(-c2nc3n(n2)CCOC3c2cc(OC(F)(F)F)ccc2F)ccc1-n1cnc(C)c1 (stereo not drawn) [Compound 374]
78 nM,,,,COc1cc(-c2nc(Nc3ccccc3OC(C)C)n(C)n2)ccc1-n1cnc(C)c1 [Compound 367]
36 nM,,,,COc1nc(-c2nc3n(n2)CCOC3c2cc(C(F)(F)F)ccc2C)ccc1-n1cnc(C)c1 (stereo not drawn) [Compound 370]
135 nM,,,,COCCOc1ccc(F)c(Nc2nc(-c3ccc(-n4cnc(C)c4)c(OC)c3)nn2C)c1 [Compound 355]
20 nM,,,,COc1cc(-c2nc(Nc3cc(OCC4CC4)ccc3F)n(C)n2)ccc1-n1cnc(C)c1 [Compound 356]
240 nM,,,,COc1nc(-c2nc3n(n2)CCC[C@@H]3c2ccc(F)cc2C)ccc1-n1cnc(C)c1 [Compound 360]
,,447 nM,,COc1cc(-c2nc(C3CCc4ccccc4N3)n(C)n2)ccc1-n1cnc(C)c1 (stereo not drawn) [Compound 365]
22 nM,,,,CCOc1ccc(F)c(Nc2nc(-c3ccc(-n4cnc(C)c4)c(OC)c3)nn2C)c1 [Compound 354]
40 nM,,,,COc1cc(-c2nc3n(n2)CCOC3c2cc(C(F)(F)F)ccc2C)ccc1-n1cnc(C)c1 (stereo not drawn) [Compound 371]
123 nM,,,,COc1cc(-c2nc3n(n2)CCC(C)C3c2ccc(F)cc2)ccc1-n1cnc(C)c1 (stereo not drawn) [Compound 369]
60 nM,,,,COc1cc(-c2nc(Nc3ccc(C)cc3F)n(C)n2)ccc1-n1cnc(C)c1 [Compound 352]
